Literature values in patent publication US8193226B2, “Candesartan cilexetil” (Zhejiang Huahai Pharmaceutical Co., Ltd., priority 2007, dated 2012).
Read-outs that look alike come from different tables or passages of the source.

What was measured:
[1] = not given; remark: listed apart in the source
[2] = not given; remark: listed apart in the source

bioavailability (solution): 40%
bioavailability (tablet): 15%
stability when processed into a tablet ([1]; in the presence of other pharmaceutically acceptable additives, or at granulation or tableting): tends to decompose
stability of the drug as such ([1]; isolated form, exposed to increased temperatures, humidity and light): stable
solubility in alcoholic solvents ([2]; alcoholic solvents): readily soluble
solubility in water ([2]; water): practically insoluble
Structure (SMILES): CCOc1nc2cccc(C(=O)OC(C)OC(=O)OC3CCCCC3)c2n1Cc1ccc(-c2ccccc2-c2nn[nH]n2)cc1 (stereo not drawn) [candesartan cilexetil]
